Experimental data as given in publication PMC3057995, “Potent Anti-Tumor Effect Generated by a Novel Human Papillomavirus (HPV) Antagonist Peptide Reactivating the pRb/E2F Pathway” (PLoS ONE, 2011).

Key:
HPV16 E7 = assay: Immunohistochemistry of tumor tissues, HPV16 E7; type: in vivo, mouse (Balb/C-nu/nu); conditions: 400 µg/mouse group vs control
SiHa cells = assay: Clonogenic assay, SiHa; type: cell-based; conditions: 14 days
Method: Cells were seeded in DMEM at 1×10^3 cells/well density in 12-well plates and allowed to attach to the substrate overnight. Thereafter, cells were treated with 0 µM, 16 µM, 32 µM, 80 µM, and 160 µM peptide in DMEM, and the medium was changed every three days. The plates were observed daily for colony formation. After 8 (for HeLa cells) or 14 (for SiHa and CaSki cells) days of treatment, the cultures were washed three times with PBS and stained with crystal violet in ethanol for 15 min. The colonies were then counted and photographed with the Alphalmager® EP image acquisition system (Alpha Innotech, Santa Clara, CA, USA).

HPV16E7/pRb interaction = assay: His-pull down of pRb by His-HPV16E7; type: binding; conditions: 293T cell lysate (300 µg total proteins), 10 µl 8 mmol/L Pep-7, overnight 4°C
Method: For pull-down analysis, the purified His-HPV E7 protein (200 µg/ml×50 µl) was preincubated with 100 µl His-band Resin (Amersham Biosciences, Little Chalfont, UK) for 4 h at 4°C. The beads were then washed four times with lysis buffer and divided into two equal portions. […] The mixtures were incubated overnight at 4°C under continuous agitation. Beads were subsequently washed four times with a lysis buffer. Bound proteins were eluted by boiling in Laemmli sample buffer and analyzed by Western blot.

[1] = test system: mutated cyclin A and E1 promoters; assay: Luciferase reporter assay, E2F-site-mutated promoters (pMCCNA-Luc, pMCCNE1-Luc), SiHa; type: cell-based; conditions: 80 µM, 24 h, E2F binding sites mutated
Description: HPV16E7-pEYFP plasmid was constructed by sub-cloning the HPV16E7 gene into the EcoRI and BamHI sites of pEYFP-N1. The HPV16E7 gene was obtained by PCR from HPV16E7- pET28a (+) plasmid, which was maintained by our laboratory, using primers pE7N1f and pE7N1b. The pRb gene was obtained by nest PCR from HeLa cDNA using pRb1, pRb2, pRb3, pRb4 as primers. The PCR product was then inserted into the HindIII and Xho I sites of pcDNA3.1-His/V5-Topo. pA3-Luc-Cyclin D1 luciferase reporter plasmid containing the cyclin D1 promoter sequence −1745 to +134 was maintained by our laboratory. Both pCCNE1-Luc and pCCNA1-Luc were constructed by nest PCR to amplify fragments of cyclins E1 and A promoter sequences (cyclin E1: +3 to +594; cyclin A: −284 to +254) which include E2F binding sites, [47] from HeLa cDNA, respectively. Primers used in pCCNE1-Luc construction were P(CCE1), P(CCE2), P(CCE3), and P(CCE4), while primers P(CCA1), P(CCA2), P(CCA3), and P(CCA4) were used in PCCNA1-Luc construction. The PCR products were then cloned into the Kpn1 and Bgl II sites of the pGL3-enhancer (Promega, Madison, WI, USA) luciferase reporter plasmid. […]
The reporter assays were performed using Bright-Glo™ Luciferase Assay System (Promega, Madison, WI, USA) according to the manufacturer's instructions. […] Each sample was determined in triplicate. […]

CaSki cells = assay: Western blot, CaSki; type: cell-based; conditions: 80 µM, 48 h
Method: Western blotting was carried out as described previously, [50]. […] After another 48 h of treatment, the cells were lysed in lysis buffer (Beyotime Institute of Biotechnology, Jiangshu, China) containing PMSF (Sigma Chemical Co., St. Louis, MI, USA) for 30 min at 4°C. The lysate was then centrifuged for 20 min at 13,000 rpm and 4°C. The proteins were then separated through SDS-PAGE and transferred onto the PVDF membrane (Immobion®-P Transfer Membrane, Millipore Corp., Billerica, MA, USA). Membranes were blocked in a Tris-buffered saline with 0.1% Tween-20 (TBS-T) solution with 5% nonfat dry milk and incubated overnight with primary antibodies at 4°C. The immunoreactive signals were detected by HRP-conjugated secondary antibodies (KPL, Gaithersburg, MD, USA) followed by SuperSignal® West Pico Chemiluminescent Substrate (Thermo Scientific, Milford, MA, USA.). Anti-β-actin antibodies were used to control protein loading. For the in vivo studies, tumors were harvested, and the cell lysates were prepared and transferred to a clean Eppendorf tube and centrifuged for 30 min at 14,000 rpm. The supernate was probed by western blotting, as described above.

SACPKGLDWCGG (C&C bridged by disulfide bonds) (disulfide) [Pep-7]
HPV16E7 protein level in tumor tissue (HPV16 E7): decreased | colony formation (SiHa cells; 16-160 µM): inhibited | concentration up to which colony number difference vs control became significant (p<0.02) (SiHa cells; vs 0 µM group, three independent experiments): 32 µM | pull-down of pRb by His-HPV16E7 (HPV16E7/pRb interaction): could not pull down pRb from 293T cell lysates with Pep-7 present | activities of mutated promoters (pMCCNA-Luc, pMCCNE1-Luc) [1]: negligible differences from those in control groups | HPV16E7 protein level (CaSki cells): reduced | cyclins A, D1 and E1 protein expression (CaSki cells): significantly reduced | pRb protein level (CaSki cells): increased
